Values after ≈ are worked out from the molar mass of the structure shown.
Experiments:
[1] = system: P. falciparum K1 strain (Thailand resistant to chloroquine); experiment: semiautomated microdilution assay, [3H]-hypoxanthine incorporation, K1 strain; type: cell-based, Plasmodium falciparum; details: K1 strain, 72 h incubation
Description: (§1) Various OZ compounds were tested by the semiautomated microdilution assay against intraerythrocytic forms of Plasmodium falciparum derived from asynchronous stock cultures.
(§2) Fifty percent inhibitory concentration (IC50) were estimated by Logit regression analysis.

[2] = system: ANKA strain of P. berghei; experiment: single dose STI in vivo screen in infected mice; parameters: species or system Plasmodium berghei; details: for Activity (%) 3 mg/kg SSV po / Activity (%) 10 mg/kg SSV po / Activity (%) po / Activity (%) sc / Activity (%) SSVpo: percent reduction in parasitemia day 3 post-infection; for Activity (%) 3 mg/kg SSV po / Survival (days) 3 mg/kg SSV po: single 3 mg/kg po in SSV; for Activity (%) 10 mg/kg SSV po / Survival (days) 10 mg/kg SSV po: single 10 mg/kg po in SSV; for Activity (%) po / Survival (days) po: single 10 mg/kg po in 3% ethanol and 7% Tween 80; for Activity (%) po / Activity (%) sc / Activity (%) SSVpo: mice; for Activity (%) sc / Survival (days) sc: single 10 mg/kg sc in 3% ethanol and 7% Tween 80; for Activity (%) SSVpo: single po dose in standard suspending vehicle (SSV); for Survival (days) po / Survival (days) sc / Survival (days) SSVpo: untreated control 5.6 ± 0.3; for Survival (days) SSVpo: single po dose in SSV
Description: In the single dose STI in vivo screen, Moro SPF or NMRI mice infected with the ANKA strain of P. berghei (groups of 3-5 mice) were treated on day one post-infection with trioxolanes dissolved or suspended in 3% ethanol and 7% Tween 80. […] SSV consists of 0.5% w/v CMC, 0.5% v/v benzyl alcohol, 0.4% v/v Tween 80, and 0.9% w/v sodium chloride in water. Antimalarial activity was measured by percent reduction in parasitemia on day three post-infection and survival times compared to an untreated control group. Survival to day 30 post-infection is considered to be a cure. […] Other factors influencing antimalarial activity include the stability of carbon radicals formed by β-scission subsequent to the initial electron transfer to the peroxide bond and the influence of steric effects remote from the peroxide bond on the interactions between carbon radicals and potential drug targets.

[3] = system: P. falciparum NF54 strain (sensitive to standard antimalarials); experiment: semiautomated microdilution assay, [3H]-hypoxanthine incorporation, NF54 strain; type: cell-based, Plasmodium falciparum; details: NF54 strain, 72 h incubation
Description: as §1, §2

Compound	IC50 (ng/ml) K1 [1] [ng/mL]	Activity (%) 3 mg/kg SSV po [2] [%]	Activity (%) 10 mg/kg SSV po [2]	Survival (days) 10 mg/kg SSV po [2]	other results
O=C([C@H]1CC[C@@]2(CC1)OO[C@@]1(O2)C2CC3CC(C2)CC1C3)N1CCNCC1 [OZ365]	0.79 (≈ 2.1 nM)	92	99.57%	8.0/8.0 days	Survival (days) 3 mg/kg SSV po [2]: 8.0/8.0 days
O=C(Cn1ccnc1)N1CCC2(CC1)OOC1(O2)C2CC3CC(C2)CC1C3 (centres unmarked) [OZ103]					IC50 (ng/ml) NF54 [3]: 0.17 ng/mL (≈ 0.455 nM); Activity (%) po [2]: 86%; Activity (%) sc [2]: 87%; Activity (%) SSVpo [2]: 63%; Survival (days) po [2]: 7.3 days; Survival (days) sc [2]: 7.3 days; Survival (days) SSVpo [2]: 6.7 days
c1cnc(NC[C@H]2CC[C@]3(CC2)OO[C@]2(O3)C3CC4CC(C3)CC2C4)nc1 [OZ326]	0.65 (≈ 1.75 nM)	7	80%	7.4 days	
O=C(NC[C@H]1CC[C@]2(CC1)OO[C@]1(O2)C2CC3CC(C2)CC1C3)c1cccnc1 [OZ273]	0.97 (≈ 2.43 nM)	64			
NCCNC(=O)C[C@H]1CC[C@]2(CC1)OO[C@]1(O2)C2CC3CC(C2)CC1C3 [OZ305]	1.8 (≈ 4.94 nM)	96	99.93%	9.2 days	
CN(C)C(=O)N1CCC2(CC1)OOC1(O2)C2CC3CC(C2)CC1C3 (centres unmarked) [OZ133]	0.70 (≈ 2.08 nM)				Activity (%) po [2]: 94%; Activity (%) sc [2]: 72%; Activity (%) SSVpo [2]: 97%; Survival (days) po [2]: 7.0 days; Survival (days) sc [2]: 7.0 days; Survival (days) SSVpo [2]: 7.3 days
O=c1ccn(C[C@H]2CC[C@]3(CC2)OO[C@]2(O3)C3CC4CC(C3)CC2C4)cc1 [OZ302]		88	99.60%		IC50 (ng/ml) NF54 [3]: 2.9 ng/mL (≈ 7.81 nM)
NC(=O)N1CCC2(CC1)OOC1(O2)C2CC3CC(C2)CC1C3 (centres unmarked) [OZ199]	0.69 (≈ 2.24 nM)				
c1cnc(OC[C@H]2CC[C@]3(CC2)OO[C@]2(O3)C3CC4CC(C3)CC2C4)nc1 [OZ325]	0.62 (≈ 1.66 nM)	30	99.43%	8.8 days	
NC(=O)c1ccc(NC[C@H]2CC[C@]3(CC2)OOC2(O3)C3CC4CC(C3)CC2C4)cc1 (some centres unmarked) [OZ286]	0.94 (≈ 2.28 nM)	60		8.7 days	
Nc1nccnc1C(=O)NC[C@H]1CC[C@]2(CC1)OO[C@]1(O2)C2CC3CC(C2)CC1C3 [OZ330]	0.55 (≈ 1.33 nM)	82	99.96%		
FC(F)(F)c1cccc(C2(c3cccc(C(F)(F)F)c3)OOC3(O2)C2CC4CC(C2)CC3C4)c1 (centres unmarked) [OZ46]					Activity (%) po [2]: 99%; Activity (%) sc [2]: 62%; Survival (days) po [2]: 7.7 days; Survival (days) sc [2]: 6.0 days
Cc1ccc(S(=O)(=O)O)cc1.N[C@H]1CC[C@H](NC(=O)C[C@H]2CC[C@]3(CC2)OO[C@]2(O3)C3CC4CC(C3)CC2C4)CC1 [OZ315]		92			
CS(=O)(=O)C1CCN(C(=O)C[C@H]2CC[C@]3(CC2)OO[C@]2(O3)C3CC4CC(C3)CC2C4)CC1 [OZ345]		0	75%	9.2 days	Survival (days) 3 mg/kg SSV po [2]: 6.6 days
NC(=O)[C@@H]1CCCN1C[C@H]1CC[C@]2(CC1)OO[C@]1(O2)C2CC3CC(C2)CC1C3 [OZ327]	0.85 (≈ 2.18 nM)	72	97%	9.8 days	
NC(=O)C1CCN(C(=O)C[C@H]2CC[C@]3(CC2)OO[C@]2(O3)C3CC4CC(C3)CC2C4)CC1 [OZ311]		40	80%	8.6 days	
CCOC(=O)CNC[C@H]1CC[C@]2(CC1)OO[C@]1(O2)C2CC3CC(C2)CC1C3 [OZ290]	0.42 (≈ 1.11 nM)	95		9.0 days	
O=C(C[n+]1ccccc1)NN=C1CCC2(CC1)OOC1(O2)C2CC3CC(C2)CC1C3.[Cl-] (centres unmarked) [OZ55]					Activity (%) po [2]: 45%; Activity (%) sc [2]: 97%; Survival (days) po [2]: 6.0 days; Survival (days) sc [2]: 7.3 days
O=C(NC[C@H]1CC[C@]2(CC1)OOC1(O2)C2CC3CC(C2)CC1C3)c1ccccc1O (some centres unmarked) [OZ280]			0/ND %	5.7ND days	
N[C@H]1CCN(C(=O)C[C@H]2CC[C@]3(CC2)OO[C@]2(O3)C3CC4CC(C3)CC2C4)C1 [OZ338]		99.80	99.93%	9.8 days	
CCNC(=O)NC[C@H]1CC[C@]2(CC1)OO[C@]1(O2)C2CC3CC(C2)CC1C3 [OZ291]		34	98%	8.0 days	
Cn1ccnc1S(=O)(=O)C[C@H]1CC[C@]2(CC1)OO[C@]1(O2)C2CC3CC(C2)CC1C3 [OZ310]		38	81%	7.8 days	
O=C(C[C@H]1CC[C@]2(CC1)OO[C@]1(O2)C2CC3CC(C2)CC1C3)N1CCS(=O)(=O)CC1 [OZ342]		0	27%	6.8 days	
NC(=O)c1cn(C[C@H]2CC[C@]3(CC2)OO[C@]2(O3)C3CC4CC(C3)CC2C4)cn1 [OZ320]	0.68 (≈ 1.75 nM)	92	99.76%	10.4 days	Survival (days) 3 mg/kg SSV po [2]: 11.8 days
CC(C)(O)[C@H]1CC[C@]2(CC1)OOC1(O2)C2CC3CC(C2)CC1C3 (some centres unmarked) [OZ108]					Activity (%) po [2]: 0/0/0%; Activity (%) sc [2]: 0/0/0%; Activity (%) SSVpo [2]: 0/0/0%; Survival (days) SSVpo [2]: 5.0 days
Cc1ccc(NC(=O)N2CCC3(CC2)OOC2(O3)C3CC4CC(C3)CC2C4)cc1 (centres unmarked) [OZ142]					Activity (%) po [2]: 0%; Activity (%) sc [2]: 99.98%; Activity (%) SSVpo [2]: 2%; Survival (days) po [2]: 6.0 days; Survival (days) sc [2]: 14.3 days; Survival (days) SSVpo [2]: 6.3 days
CCOC(=O)c1ccc([C@H]2CC[C@]3(CC2)OOC2(O3)C3CC4CC(C3)CC2C4)cc1 (some centres unmarked) [OZ164]					IC50 ([1]; Plasmodium falciparum, read-out: IC50 (ng/ml) K1): 59 ng/mL (≈ 143 nM); Activity (%) po [2]: 11%; Activity (%) sc [2]: 7%; Activity (%) SSVpo [2]: 0%; Survival (days) SSVpo [2]: 5.7 days
O=C(COc1ccc(Cl)cc1)N1CCC2(CC1)OOC1(O2)C2CC3CC(C2)CC1C3 (centres unmarked) [OZ101]					Activity (%) po [2]: 44%; Activity (%) sc [2]: 99.97%; Activity (%) SSVpo [2]: 0%; Survival (days) po [2]: 6.3 days; Survival (days) sc [2]: 13 days; Survival (days) SSVpo [2]: 5.3 days
O=CNCC(=O)NC[C@H]1CC[C@]2(CC1)OO[C@]1(O2)C2CC3CC(C2)CC1C3 [OZ322]	0.90 (≈ 2.38 nM)	61	98%	10.0 days	
